Results reported in BindingDB's records for doi:10.1021/ml5001867 (Abbvie, 2014).

Test: Inhibition of BCL-XL (unknown origin) expressed in mcl-1 deficient MEF assessed as induction of cell killing incubated for 48 hrs in presence of 10% FBS by Cell titerGlo reagent based assay
Work on `CN(C)CCCNc1ncnc2c1cnn2-c1ccc(OCCCc2sc(N3CCc4cccc(C(=O)Nc5nc6ccccc6s5)c4C3)nc2C(=O)O)cc1` yielded an EC50 of 10 nM. Work on `O=C(Nc1nc2ccccc2s1)c1cccc2c1CN(c1nc(C(=O)O)c(CCOc3cccc(-n4ncc5cncnc54)c3)s1)CC2` yielded an EC50 of over 5000 nM. For `CN1CCN(CCCNc2ncnc3c2cnn3-c2ccc(OCCCc3sc(N4CCc5cccc(C(=O)Nc6nc7ccccc7s6)c5C4)nc3C(=O)O)cc2)CC1`, the EC50 was 20 nM. `O=C(Nc1nc2ccccc2s1)c1cccc2c1CN(c1nc(C(=O)O)c(CCOc3ccc(-n4ncc5cncnc54)cc3)s1)CC2` gave an EC50 of over 5000 nM. For `O=C(Nc1nc2ccccc2s1)c1cccc2c1CN(c1nc(C(=O)O)c(CCCOc3cccc(-n4ncc5cncnc54)c3)s1)CC2`, the EC50 was over 5000 nM. With `O=C(Nc1nc2ccccc2s1)c1cccc2c1CN(c1nc(C(=O)O)c(CCCCOc3ccc(-n4ncc5cncnc54)cc3)s1)CC2` the EC50 was over 5000 nM. For `O=C(Nc1nc2ccccc2s1)c1cccc2c1CN(c1nc(C(=O)O)c(CCCOc3ccc(-n4cccn4)cc3)s1)CC2`, the EC50 was 640 nM. `O=C(Nc1nc2ccccc2s1)c1cccc2c1CN(c1nc(C(=O)O)c(CCCOc3ccc(-n4ncc5cncnc54)cc3)s1)CC2` showed an EC50 of 60 nM.
